Where two headings read alike, the source gives them in different places.
Columns and labels:
Cathepsin D (Cat D) = molecular target: T1, Cathepsin D (Cat D) (Homo sapiens, UniProt P07339); assay: In vitro enzymatic Cathepsin D (Cat D) FRET assay; assay type: biochemical; settings: read-out: CatD IC50
T1 construct: Recombinant Cat D was expressed in CHO cells; made in house; host or cells: CHO cells
Outline: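 FRET read-out: a fluorophore/quencher-labelled peptide substrate is cleaved by 9 nM Cat D (recombinant, CHO-expressed) following a one-hour preincubation with inhibitor dilutions in DMSO. Tris buffer added to neutralize pH ends the reaction before fluorescence measurement.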

[1] = molecular target: Beta Secretase enzyme (BACE1) (Homo sapiens, UniProt P56817); assay: In vitro enzymatic BACE FRET assay; assay type: biochemical; settings: read-out: BACE1 FRET assay IC50
Beta Secretase enzyme (BACE1), sequence (P56817 46-501): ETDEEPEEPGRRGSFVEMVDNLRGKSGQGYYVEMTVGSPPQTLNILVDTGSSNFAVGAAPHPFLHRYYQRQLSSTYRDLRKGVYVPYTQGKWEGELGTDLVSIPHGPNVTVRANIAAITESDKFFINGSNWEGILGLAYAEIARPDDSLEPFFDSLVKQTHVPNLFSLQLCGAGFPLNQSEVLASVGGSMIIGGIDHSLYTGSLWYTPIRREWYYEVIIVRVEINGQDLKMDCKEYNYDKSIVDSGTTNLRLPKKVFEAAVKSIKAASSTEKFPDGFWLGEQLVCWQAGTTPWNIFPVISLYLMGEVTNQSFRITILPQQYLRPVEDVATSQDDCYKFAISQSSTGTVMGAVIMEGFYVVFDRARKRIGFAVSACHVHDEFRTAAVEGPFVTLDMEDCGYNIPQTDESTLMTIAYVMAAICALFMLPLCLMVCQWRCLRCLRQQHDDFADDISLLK
Outline: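 Readout: dequenched fluorescence (ex 488 nm/[…]) after neutralizing with Tris buffer. Reactions, begun by adding 50 nM quenched peptide substrate spanning the BACE cleavage site, were incubated one hour at pH 4.2 in 0.05 M acetate with 100 uM genapol and 10% final DMSO.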

[2] = system: Aβ40 in conditioned medium of cells stably expressing Amyloid Precursor Protein (APP); assay: In vitro BACE cell-based assay (HEK cell assay), Aβ40 sandwich ELISA; settings: Homo sapiens, HEK293
Outline: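 Aβ40 in conditioned medium was quantified by time-resolved fluorescence sandwich ELISA (pAb40 capture 3 h at 4 °C, biotin-6E10 detection 2 h at 4 °C) after 24 h compound exposure of APP-expressing cells. Doses spanned 10 points from 100 μM or 10 μM top, 0.1% DMSO; IC50 was derived from percent of control.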

T1 sequence (P07339 65-412, species assumed): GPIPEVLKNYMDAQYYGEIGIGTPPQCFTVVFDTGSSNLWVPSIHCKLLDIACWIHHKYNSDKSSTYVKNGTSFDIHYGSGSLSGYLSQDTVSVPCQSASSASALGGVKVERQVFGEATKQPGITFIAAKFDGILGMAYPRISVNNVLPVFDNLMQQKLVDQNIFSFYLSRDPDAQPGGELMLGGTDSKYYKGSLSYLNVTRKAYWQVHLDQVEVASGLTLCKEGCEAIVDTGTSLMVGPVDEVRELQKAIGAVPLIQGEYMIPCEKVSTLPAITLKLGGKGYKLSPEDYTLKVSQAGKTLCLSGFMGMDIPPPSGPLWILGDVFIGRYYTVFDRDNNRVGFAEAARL

SMILES	IC50 (Cathepsin D (Cat D))	IC50 ([1]; average IC50, enzyme assay)	IC50 ([2]; average IC50, HEK cell assay)	IC50 [1]	IC50 [2]
Cc1cnc(C(=O)Nc2ccc(F)c([C@]3(CF)CS(=O)(=O)C(C)(C)C(N)=N3)c2)c(C)c1 [Example 360, N-(3-((3S)-5-amino-3-(fluoromethyl)-6,6-dimethyl-1,1-dioxido-3,6-dihydro-2H-1,4-thiazin-3-yl)-4-fluorophenyl)-3,5-dimethyl-2-pyridinecarboxamide]	636 µM	0.00299 µM	0.0245 µM		
CC1(C)C(N)=N[C@](CF)(c2cc(NC(=O)c3ccc(C(F)F)cn3)ccc2F)CS1(=O)=O [Example 361, N-(3-((3S)-5-amino-3-(fluoromethyl)-6,6-dimethyl-1,1-dioxido-3,6-dihydro-2H-1,4-thiazin-3-yl)-4-fluorophenyl)-5-(difluoromethyl)-2-pyridinecarboxamide]	437 µM	0.0008 µM	0.0193 µM		
CC1(C)C(N)=N[C@](CF)(c2cc(NC(=O)c3ccc(OC(F)F)cn3)ccc2F)CS1(=O)=O [Example 362, N-(3-((3S)-5-amino-3-(fluoromethyl)-6,6-dimethyl-1,1-dioxido-3,6-dihydro-2H-1,4-thiazin-3-yl)-4-fluorophenyl)-5-(difluoromethoxy)-2-pyridinecarboxamide]	303 µM	0.0003 µM	0.0035 µM		
CC1(C)C(N)=N[C@](CF)(c2cc(NC(=O)c3ccc(F)cn3)ccc2F)CS1(=O)=O [Example 363, N-(3-((3S)-5-amino-3-(fluoromethyl)-6,6-dimethyl-1,1-dioxido-3,6-dihydro-2H-1,4-thiazin-3-yl)-4-fluorophenyl)-5-fluoro-2-pyridinecarboxamide]	> 400 µM	0.0017 µM	0.0456 µM		
CC1(C)C(N)=N[C@](CF)(c2cc(NC(=O)c3cnc(OCC(F)F)cn3)ccc2F)CS1(=O)=O [Example 364, N-(3-((3S)-5-amino-3-(fluoromethyl)-6,6-dimethyl-1,1-dioxido-3,6-dihydro-2H-1,4-thiazin-3-yl)-4-fluorophenyl)-5-(2,2-difluoroethoxy)-2-pyrazinecarboxamide]	858 µM	0.0005 µM	0.0214 µM		
CC1(C)C(N)=N[C@](CF)(c2cc(NC(=O)c3cnc(OCCF)cn3)ccc2F)CS1(=O)=O [Example 365, N-(3-((3S)-5-amino-3-(fluoromethyl)-6,6-dimethyl-1,1-dioxido-3,6-dihydro-2H-1,4-thiazin-3-yl)-4-fluorophenyl)-5-(2-fluoroethoxy)-2-pyrazinecarboxamide]	> 400 µM	0.00097 µM	0.0447 µM		
Cc1cc(Cl)cnc1C(=O)Nc1ccc(F)c([C@]2(CF)CS(=O)(=O)C3(CCC3)C(N)=N2)c1 [Example 366, N-(3-((7S)-9-amino-7-(fluoromethyl)-5,5-dioxido-5-thia-8-azaspiro[3.5]non-8-en-7-yl)-4-fluorophenyl)-5-chloro-3-methyl-2-pyridinecarboxamide]	241 µM	0.00079 µM	0.0141 µM		
Cc1c(C(=O)Nc2ccc(F)c([C@]3(CF)CS(=O)(=O)C4(CCC4)C(N)=N3)c2)nc2ccc(Cl)cn12 [Example 367, N-(3-((7S)-9-amino-7-(fluoromethyl)-5,5-dioxido-5-thia-8-azaspiro[3.5]non-8-en-7-yl)-4-fluorophenyl)-6-chloro-3-methylimidazo[1,2-a]pyridine-2-carboxamide]	> 400 µM	0.00507 µM	0.0137 µM		
Cc1cc(C#N)cnc1C(=O)Nc1ccc(F)c([C@]2(CF)CS(=O)(=O)C3(CCC3)C(N)=N2)c1 [Example 368, N-(3-((7S)-9-amino-7-(fluoromethyl)-5,5-dioxido-5-thia-8-azaspiro[3.5]non-8-en-7-yl)-4-fluorophenyl)-5-cyano-3-methyl-2-pyridinecarboxamide]	222 µM	0.00064 µM	0.0046 µM		
Cc1cc(C(F)F)cnc1C(=O)Nc1ccc(F)c([C@]2(CF)CS(=O)(=O)C3(CCC3)C(N)=N2)c1 [Example 369, N-(3-((7S)-9-amino-7-(fluoromethyl)-5,5-dioxido-5-thia-8-azaspiro[3.5]non-8-en-7-yl)-4-fluorophenyl)-5-(difluoromethyl)-3-methyl-2-pyridinecarboxamide]	233 µM			0.0014 µM	0.0123 µM
COCc1cc(Cl)cnc1C(=O)Nc1ccc(F)c([C@]2(CF)CS(=O)(=O)C3(CCC3)C(N)=N2)c1 [Example 370, N-(3-((7S)-9-amino-7-(fluoromethyl)-5,5-dioxido-5-thia-8-azaspiro[3.5]non-8-en-7-yl)-4-fluorophenyl)-5-chloro-3-(methoxymethyl)-2-pyridinecarboxamide]	> 400 µM			0.00081 µM	0.0273 µM
Cc1cc(OCC2CC2)cnc1C(=O)Nc1ccc(F)c([C@]2(CF)CS(=O)(=O)C3(CCC3)C(N)=N2)c1 [Example 371, N-(3-((7S)-9-amino-7-(fluoromethyl)-5,5-dioxido-5-thia-8-azaspiro[3.5]non-8-en-7-yl)-4-fluorophenyl)-5-(cyclopropylmethoxy)-3-methyl-2-pyridinecarboxamide]	391 µM			0.00156 µM	0.077 µM
N#Cc1cnc(C(=O)Nc2ccc(F)c([C@]3(CF)CS(=O)(=O)C4(CCC4)C(N)=N3)c2)c(Cl)c1 [Example 372, N-(3-((7S)-9-amino-7-(fluoromethyl)-5,5-dioxido-5-thia-8-azaspiro[3.5]non-8-en-7-yl)-4-fluorophenyl)-3-chloro-5-cyano-2-pyridinecarboxamide]	367 µM			0.00072 µM	0.0071 µM
COc1cnc(C(=O)Nc2ccc(F)c([C@]3(CF)CS(=O)(=O)C4(CCC4)C(N)=N3)c2)c(C)c1 [Example 373, N-(3-((7S)-9-amino-7-(fluoromethyl)-5,5-dioxido-5-thia-8-azaspiro[3.5]non-8-en-7-yl)-4-fluorophenyl)-5-methoxy-3-methyl-2-pyridinecarboxamide]	197 µM			0.00245 µM	0.0148 µM
Cc1cc(OCC(F)(F)F)cnc1C(=O)Nc1ccc(F)c([C@]2(CF)CS(=O)(=O)C3(CCC3)C(N)=N2)c1 [Example 374, N-(3-((7S)-9-amino-7-(fluoromethyl)-5,5-dioxido-5-thia-8-azaspiro[3.5]non-8-en-7-yl)-4-fluorophenyl)-3-methyl-5-(2,2,2-trifluoroethoxy)-2-pyridinecarboxamide]	630 µM			0.0011 µM	0.0616 µM
COc1cc(Cl)cnc1C(=O)Nc1ccc(F)c([C@]2(CF)CS(=O)(=O)C3(CCC3)C(N)=N2)c1 [Example 375, N-(3-((7S)-9-amino-7-(fluoromethyl)-5,5-dioxido-5-thia-8-azaspiro[3.5]non-8-en-7-yl)-4-fluorophenyl)-5-chloro-3-methoxy-2-pyridinecarboxamide]	781 µM			0.0029 µM	0.0298 µM
CC1(C)C(N)=N[C@](CF)(c2cc(NC(=O)c3cnc(C(F)F)cn3)ccc2F)CS1(=O)=O [Example 376, N-(3-((3S)-5-amino-3-(fluoromethyl)-6,6-dimethyl-1,1-dioxido-3,6-dihydro-2H-1,4-thiazin-3-yl)-4-fluorophenyl)-5-(difluoromethyl)-2-pyrazinecarboxamide]	172 µM			0.00223 µM	0.0615 µM
COc1cnc(C(=O)Nc2ccc(F)c([C@]3(CF)CS(=O)(=O)C(C)(C)C(N)=N3)c2)c(C)c1 [Example 377, N-(3-((3S)-5-amino-3-(fluoromethyl)-6,6-dimethyl-1,1-dioxido-3,6-dihydro-2H-1,4-thiazin-3-yl)-4-fluorophenyl)-5-methoxy-3-methyl-2-pyridinecarboxamide]	335 µM			0.003 µM	0.0098 µM
CC1(C)C(N)=N[C@](CF)(c2cc(NC(=O)c3ncc(F)cc3F)ccc2F)CS1(=O)=O [Example 378, N-(3-((3S)-5-amino-3-(fluoromethyl)-6,6-dimethyl-1,1-dioxido-3,6-dihydro-2H-1,4-thiazin-3-yl)-4-fluorophenyl)-3,5-difluoro-2-pyridinecarboxamide]	> 400 µM			0.0016 µM	0.018 µM
CC1(C)C(N)=N[C@](CF)(c2cc(NC(=O)c3ncc(C(F)(F)F)cc3Cl)ccc2F)CS1(=O)=O [Example 379, N-(3-((3S)-5-amino-3-(fluoromethyl)-6,6-dimethyl-1,1-dioxido-3,6-dihydro-2H-1,4-thiazin-3-yl)-4-fluorophenyl)-3-chloro-5-(trifluoromethyl)-2-pyridinecarboxamide]	775 µM			0.00099 µM	0.0115 µM
CC1(C)C(N)=N[C@](CF)(c2cc(NC(=O)c3ncc(Cl)nc3Cl)ccc2F)CS1(=O)=O [Example 380, N-(3-((3S)-5-amino-3-(fluoromethyl)-6,6-dimethyl-1,1-dioxido-3,6-dihydro-2H-1,4-thiazin-3-yl)-4-fluorophenyl)-3,5-dichloro-2-pyrazinecarboxamide]	282 µM			0.0018 µM	0.999 µM
C=Cc1cc(Cl)cnc1C(=O)Nc1ccc(F)c([C@]2(CF)CS(=O)(=O)C(C)(C)C(N)=N2)c1 [Example 381, N-(3-((3S)-5-amino-3-(fluoromethyl)-6,6-dimethyl-1,1-dioxido-3,6-dihydro-2H-1,4-thiazin-3-yl)-4-fluorophenyl)-5-chloro-3-ethenyl-2-pyridinecarboxamide]	194 µM			0.00086 µM	0.0539 µM

Reference: patent US20140107109A1, “AMINO-DIHYDROTHIAZINE AND AMINO-DIOXIDO DIHYDROTHIAZINE COMPOUNDS AS BETA-SECRETASE ANTAGONISTS AND METHODS OF USE” (Amgen Inc., priority 2012, published 2014)
